For 1 compound, inhibition results are on record in patent US20240287172A1, “PROTEIN BINDERS TO IRHOM2 EPITOPES” (SCIRHOM GMBH, priority 2019, published 2024).

This assay concerns LPS-induced release of endogenous TNFα from human macrophages from healthy donors. The assay is described as follows: ELISA-based TNFα release assay, LPS-induced, human macrophages from healthy donors. As to conditions: Macrophage, LPS 5 ng/ml, 2 hours, recombinant murine antibodies at 10 μg/ml, Batimastat at 10 μM. In kind it is cell-based. On the procedure:
To obtain human macrophages, peripheral blood mononuclear cells (PBMCs) from 4 healthy donors were used. Cells from 5 ml human blood were resuspended in 20 ml of DMEM medium (Corning, USA) supplemented with 10% FCS (Atlanta Biological, USA) and Penicillin/Streptomycin (Corning, USA) (DMEM/FCS) and were then incubated on two 10 cm petri dishes (Thermo Fisher, USA) at 37° C., 5% CO2 for 3h. Non-adherent cells were subsequently removed and 6 ml of DMEM/FCS supplemented with 10 ng/ml human MCSF (Peprotech, USA) (DMEM/FCS/MCSF) was added per plate. Both plates were incubated at 37° C., 5% CO2 for 2 days, then 2 ml of DMEM/FCS/MCSF was added to each plate on day 2 and 4. On day 5, all medium was removed and attached cells were washed once with 5 ml PBS (Corning, USA). 2 ml of Accutase (Promocell, USA) solution was added to each plate and incubated at 37° C. for 15 min. 10 ml of DMEM/FCS was added to each plate and detached cells were collected in a 15 ml Falcon tube. Cells were subsequently pelleted in a tabletop centrifuge (Eppendorf, USA) at 1,500 rpm for 5 min. The medium was removed and the cells were resuspended in 2 ml of DMEM/FCS. 10 μl from this cell suspension was manually counted in a hemocytometer (Thermo Fisher, USA). […]
(An ELISA detects its analyte on a solid surface through an enzyme-linked reagent.)

Take `CNC(=O)[C@H](Cc1ccccc1)NC(=O)[C@H](CC(C)C)[C@H](CSc1cccs1)C(=O)NO` [Batimastat]: the inhibition (in general, the drop in the measured response relative to a control, in per cent) at 10 µM turned out to be 68.3%.
